Data on one compound can be found in patent US6620808B2, “Endocrine modulation with positive modulators of AMPA type glutamate receptors” (The Regents of the University of California, priority 1997, dated 2003).

This experiment has as its system Sections of the hypothalamus containing the arcuate nucleus. The experiment is described as follows: release of GHRH from hypothalamic explants in static culture. Format: cell-based, rats. To be noted: GR87 at 100 μm. The text has this: The arcuate nucleus of the hypothalamus contains the majority of cells that synthesize GHRH and secrete the releasing factor into the anterior pituitary. Sections of the hypothalamus containing the arcuate nucleus were explanted from postnatal day 10-12 rats and maintained in static culture. Once established, these cultures were used to test the prediction that positive, allosteric modulators of AMPA type glutamate receptors will increase the release of GHRH from the hypothalamus into the culture medium. Explants were exposed to GR87 at 100 μm for four hours on some days and to vehicle for the same period on other days. Concentrates of the media were prepared following the exposure periods of GHRH assayed using a commercially available kit. Using a within culture design, i.e. drug vs. vehicle in the same tissue well, provided a control for differences in tissue thickness and the extent to which the arcuate was contained within the explants. As shown, the amount of GHRH in the media was about threefold greater after four hours of treatment with ampakine than it was after an equivalent period of vehicle application. This effect was in the predicted direction and was statistically significant (p=0.011).
A single experiment was conducted to test if prolonged administration of GR87 at 100 μm would affect GHRH secretion. […]

On to `O=C(c1ccc2c(c1)OCCO2)N1CCCCC1` [GR87], for which the “media level of GHRH” value (24 hours, group of 12 explants (controls 18 ng/400 μl)) is recorded as 47 ng/400 μl. The “amount of GHRH in the media relative to vehicle application” value (four hours, within-culture drug vs vehicle, p=0.011) is “about threefold”.
